From patent US20100035762A1, “Prognostic Methods in Colorectal Cancer” (Oryzon Genomics, S.A., priority 2006, published 2010)

What was measured:
[1] = test system: EphB4 gene expression in SW620 cells; assay: Treatment of colorectal cancer cell line SW620, EphB4 gene expression by RT-PCR; format: cell-based; settings: 72 h
Method: (§1) Top panel: changes in gene expression a measured by RT-PCR. Lower panel: changes in methylation a measure by PCR on bisulfite treated DNA with methylation specific primers.
(§2) Cultures of the colorectal cancer cell line SW620, characterized by a low expression level and methylation the EphB4 promoter; were treated during 72 h with different concentrations of 5aza- cytidin.

EphB4 promoter = assay: Treatment of SW620, EphB4 promoter methylation by PCR on bisulfite treated DNA with methylation specific primers; format: cell-based; settings: SW620 cells
Method: as §1, §2

## Nc1ncn([C@@H]2O[C@H](CO)[C@@H](O)[C@H]2O)c(=O)n1 [5-aza-cytidine]
[1]
  most effective dose for increase of EphB4 gene expression: 10 µM
[1]; different concentrations
  level of EphB4 gene expression: increase
EphB4 promoter
  methylation of the EphB4 promoter: reduces the methylation
